According to US20220009914A1, “Analogs of Nitrofuran Antibiotics to Combat Resistance” (The Trustees of Indiana University, priority 2020, published 2022):
Like-named read-outs stand apart in the source and are kept apart here.

What was measured:
E. coli GroEL = target: T1, E. coli GroEL (Escherichia coli, UniProt P0A6F5); assay: GroEL-mediated ATPase assay; format: biochemical
T1 construct: made in house; host or cells: NEB 5-alpha E. coli
Description: Evaluating compounds for inhibition in the GroEL-mediated ATPase assay. All compounds were evaluated for inhibiting E. coli GroEL-mediated ATPase activity as per our previously reported procedure although employing only GroEL in solution and not containing GroES or denatured MDH. Evaluating compounds for inhibition in the GroEL-mediated ATPase assay.
Reagent preparation: For this assay, four primary reagent solutions were prepared: 1) GroEL protein solution; 2) ATP initiation solution; 3) EDTA quench solution; 4) malachite green reporter solution. The GroEL protein solution consisted of 100 nM of GroEL in folding buffer (50 mM Tris-HCl, pH 7.4, 50 mM KCl, 10 mM MgCl2, and 1 mM DTT), which was prepared immediately prior to dispensing into the assay plates. For the ATP initiation solution, ATP solid was diluted into folding buffer to a final concentration of 2 mM. Quench solution contained 300 mM EDTA (pH 8.0). The malachite green reporter solution contained 0.034% w/v malachite green, 1.04% w/v ammonium molybdate, 1% Tween-20, and 1 M HCl dissolved in H2O.
Assay Protocol: First, 10 μL aliquots of the GroEL protein solution were dispensed into clear, flat-bottom 384-well polystyrene plates. […] After incubating for 45 minutes at 37° C., 10 μL of the EDTA quench solution was added to quench the reaction cycle. Then, 60 μL of the malachite green reporter solution was added and the plates were incubated at room temperature for 10 min. The absorbance of the malachite green-phosphate complex was measured at 600 nm using a Molecular Devices SpectraMax Plus384 microplate reader. A second set of baseline control plates were prepared analogously, but without GroEL protein solution, to correct for possible interference from compound absorbance or turbidity. […] Results presented represent the averages of IC50 values obtained from at least four replicates.
Evaluating analogs for inhibiting GroEL-mediated ATPase activity. […] Thus, we further tested analogs in a well-established GroEL ATPase assay that employed malachite green to monitor inorganic phosphate liberated as GroEL hydrolyzed ATP. Briefly, a solution of GroEL was incubated with test compounds (8-point, 3-fold dilution series) and the assay was initiated by addition of ATP. After incubating for 45 minutes, the ATPase reaction was quenched by the addition of EDTA. Malachite green was then added to the assay to bind and detect free phosphates in solution (absorbance detection at k=600 nm). If analogs inhibited ATPase activity, then there would be no free phosphates for malachite green to bind, leading to minimal absorbance at 600 nm.

FHC colon cells = assay: in vitro; details: for CC50: human, 48 h
Description: (§1) Evaluating compound effects on the viability of human colon and small intestine cells. […] Evaluating compound effects on the viability of human colon and small intestine cells. Evaluation of compound cytotoxicities to FHC colon and FHs 74 Int small intestine cells were performed using Alamar Blue-based viability assays. […] FHs 74 Int cells were maintained in Hybri-care medium (ATCC 46-X) supplemented with 30 ng/mL recombinant epidermal growth factor (EGF) and 10% FBS (Midwest Scientific, USDAFBS).

[1] = system: FHs 74 Int small intestine cells; assay: in vitro; details: for CC50: human, 48 h
Description: as §1

native MDH = target: T2, native MDH (Sus scrofa, UniProt P00346); assay: native MDH enzymatic activity counter-screen; format: biochemical, pig
T2 sequence (P00346 25-338): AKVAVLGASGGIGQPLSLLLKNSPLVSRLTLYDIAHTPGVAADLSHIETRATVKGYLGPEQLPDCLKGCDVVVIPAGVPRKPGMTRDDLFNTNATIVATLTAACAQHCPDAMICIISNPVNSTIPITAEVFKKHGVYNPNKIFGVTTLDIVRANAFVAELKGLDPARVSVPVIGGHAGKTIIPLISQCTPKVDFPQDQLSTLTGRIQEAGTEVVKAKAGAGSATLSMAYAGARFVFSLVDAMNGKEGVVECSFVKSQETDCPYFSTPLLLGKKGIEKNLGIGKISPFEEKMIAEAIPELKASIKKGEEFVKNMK
Description: Reagent Preparations & Assay Protocol: This assay was performed as described above for the GroEL/ES-dMDH refolding assay; however, the assay protocol differed in the sequence of compound addition to the assay plates. The refolding reactions were allowed to proceed for 45 min at 37° C. in the absence of test compounds (complete refolding of MDH occurs), then quenched with the EDTA stock. Compounds were then pin-transferred into the plates after the EDTA quenching step; thus, compound effects are only possible by inhibiting the fully-refolded MDH reporter substrate. […] A340 nm measurements were recorded at 0.5 minutes (start point) and at successive time points until the amount of NADH consumed reached ˜90% (end point, generally between 20-35 minutes). Compounds were tested in 8-point, 3-fold dilution series (62.5 μM to 29 nM during the reporter reaction) in clear, flat-bottom 384-well microtiter plates. IC50 values for the MDH reporter enzyme were determined as described above. Results presented represent the averages of IC50 values obtained from at least five replicates.
Evaluating analogs for inhibiting GroEL/ES-mediated substrate refolding functions. […] We first evaluated all test compounds in our standard GroEL/ES-mediated refolding assays that employ either malate dehydrogenase (MDH) or rhodanese (Rho) as the denatured substrate reporter enzymes. When denatured, these enzymes are efficiently folded by GroEL/ES in the absence of inhibitors, and thus act as reporters to determine the degree of inhibition against the bacterial chaperonin system. Inhibition was examined in the presence of these two orthogonal substrates in order to support that GroEL/ES inhibitors were on-target. To further support on-target effects against GroEL/ES, we counter-screened for inhibition of the native MDH and Rho enzymatic reporter reactions, where test compounds were added after the denatured MDH and Rho substrate enzymes were completely refolded by GroEL/ES.

[2] = CC50 colon cells over EC50 E. coli proliferation
[3] = CC50 intestine cells over EC50 E. coli proliferation

T1 sequence (P0A6F5 2-548): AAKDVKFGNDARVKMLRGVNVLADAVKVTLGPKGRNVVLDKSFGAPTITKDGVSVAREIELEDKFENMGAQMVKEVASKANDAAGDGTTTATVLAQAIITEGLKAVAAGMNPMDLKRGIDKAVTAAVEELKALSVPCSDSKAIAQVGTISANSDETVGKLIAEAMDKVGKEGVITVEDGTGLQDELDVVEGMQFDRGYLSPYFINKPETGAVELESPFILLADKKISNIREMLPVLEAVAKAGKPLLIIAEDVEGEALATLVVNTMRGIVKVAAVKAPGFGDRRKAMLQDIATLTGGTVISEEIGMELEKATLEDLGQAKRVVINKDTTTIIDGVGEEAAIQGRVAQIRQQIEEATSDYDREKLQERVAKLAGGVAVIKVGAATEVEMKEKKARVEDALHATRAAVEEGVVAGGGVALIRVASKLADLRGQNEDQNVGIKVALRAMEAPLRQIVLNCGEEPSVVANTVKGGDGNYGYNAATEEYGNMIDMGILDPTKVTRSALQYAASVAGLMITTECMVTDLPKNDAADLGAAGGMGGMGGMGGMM

| SMILES | IC50 (E. coli GroEL) | SI (CC50/EC50) Colon (FHC colon cells) | CC50 (FHC colon cells) | SI (CC50/EC50) Intestine [1] | cytotoxicity to human cells in words [1] | CC50 [1] | SI (CC50/EC50) Colon (FHC colon cells; [2]) | SI (CC50/EC50) Intestine [1, 3] | IC50 (native MDH) | IC50 (E. coli GroEL; GroEL only, no GroES or dMDH, read-out: GroEL ATPase IC50) |
| --- | --- | --- | --- | --- | --- | --- | --- | --- | --- | --- |
| COc1ccc(C(=O)N/N=C/c2ccc([N+](=O)[O-])o2)cc1 [Compound 20, 4-methoxy-N′-((5-nitrofuran-2-yl)methylene)benzohydrazide] | > 250 µM | >53 | > 100 µM | 40 | low to no cytotoxicity | 75 µM |  |  |  |  |
| O=C(N/N=C/c1ccc([N+](=O)[O-])o1)c1ccccc1 [Compound 18, N′-((5-nitrofuran-2-yl)methylene)benzohydrazide] | > 250 µM | >48 | > 100 µM | 45 |  | 94 µM |  |  |  |  |
| O=C1CN(/N=C/c2ccc([N+](=O)[O-])o2)C(=O)N1 [Nitrofurantoin, reference compound] | > 250 µM |  | > 100 µM |  | low to no cytotoxicity | > 100 µM | >146 | >146 |  |  |
| O=C(N/N=C/c1ccc([N+](=O)[O-])o1)c1ccc(O)cc1 [Nifuroxazide, reference compound] | > 250 µM |  | 61 µM |  | low to no cytotoxicity | 79 µM | 70 | 91 | > 63 µM |  |
| CN(C)c1ccc(C(=O)N/N=C/c2ccc([N+](=O)[O-])o2)cc1 [Compound 21, 4-(dimethylamino)-N′-((5-nitrofuran-2-yl)methylene)benzohydrazide] | > 250 µM | >10 | > 100 µM | 9.3 |  | 93 µM |  |  |  |  |
| O=C(N/N=C/c1ccc([N+](=O)[O-])o1)c1ccc(Cl)s1 [Compound 17, 5-chloro-N′-((5-nitrofuran-2-yl)methylene)thiophene-2-carbohydrazide] |  | 119 | 53 µM | 190 | low to no cytotoxicity | 85 µM |  |  |  | > 250 µM |
| O=C(N/N=C/c1ccc([N+](=O)[O-])o1)c1ccncc1 [Compound 19, N′-((5-nitrofuran-2-yl)methylene)isonicotinohydrazide] | > 250 µM | 26 | 61 µM | 38 |  | 90 µM |  |  |  |  |
